Source: patent US20240224994A1, “INSECT REPELLANT FORMULATION AND METHOD OF USING SAME” (United Industries Corporation, priority 2021, published 2024)

System: Deer Ticks, Ixodes ricinus
Experiment: Efficacy of nootkatone formulations against ticks on human forearm skin (complete protection time)
Type: in vivo
Conditions: FIG. 1; human skin test
Protocol: The objective of the study was estimate the complete protection time (CPT) of the various repellent formulations against ticks. Complete protection time (CPT) was measured as the length of time from initial application to the First Confirmed Crossing (FCC).
A number of 32 volunteers were selected based on signing of informed consent form and passing the sensitivity test, 24-48 hours before the initiation of the experiment. The volunteers were briefed about the experiment in detail prior to signing the consent form. Test volunteers were instructed to avoid alcohol, tobacco, caffeine, and fragrance products (e.g., perfume, cologne, hair spray, lotion, etc.) at least for 12 hours before, and during the test.
The test substance/positive control (liquid) was applied at 1 ml/600 cm^2±10% deviation. […] The treatment area was calculated by measuring the circumference (cm) of the wrist (B), the circumference (cm) at the elbow-cubital fossa (C) when the arm is extended, and the distance (cm) from the elbow to the wrist (D) The surface area (in cm^2) of skin was calculated by: […]
Fresh ticks were exposed to the treated area one at a time, at regular intervals of 30 minutes until the first crossing or observation were recorded as “not repelled.” The cycle continues until efficacy failure or the end of the study, whichever occurs first. […]

OCc1ccccc1 [benzyl alcohol]
effect of ingredient on CPT of the compositions: effective in prolonging the CPT
